Patent publication US4742045A, “Glycopeptide antibiotics” (SmithKline Beckman Corporation, priority 1986, dated 1988)

Key:
Streptococcus pyogenes = experiment: standard microtiter assay, minimum inhibitory concentration; format: cell-based; conditions: Table 2 test organism 11, Streptococcus pyogenes
STAPH. AUREUS HH 127 = experiment: prophylactic activity, dosing preinfection; format: in vivo, mice
S. faecalis = experiment: mice infected intraperitoneally, dosed 1 hr after infection, ED50; format: in vivo
Procedure: (§1) The in vivo activity of the CWI-785 complex and its components and hydrolysis products was confirmed by administering selected CWI-785 antibiotics to mice infected with various gram-positive pathogens. In one representative assay, in which mice infected intraperitoneally with 46.8 LD50 's of S. aureus (strain 1, Tables 1 and 2) were dosed once, subcutaneously one hour after infection, the following ED50 's (mg/kg) were observed: CWI-785B: 2.4, CWI-785C: 3.1, CWI-785: 3.8, HPB3: 0.9, vancomycin: 0.7. In a second representative assay carried out as above except that mice were infected with 3.17 LD50 's of S. faecalis (strain 9, Table 2), the following ED50 's were observed: HPB3 hydrochloride: 1.6, HPB4 hydrochloride: 1.6, vancomycin: 2.2, teicoplanin: 1.3.
(§2) In Table 6, below, is shown the ED50 in mg/kg of HPB4 in comparison to vancomycin and teicoplanin. Mice were injected i.p. with the indicated organism and then i.v., 1 hr post infection, with the indicated antibiotic.

S. aureus = experiment: as above; format: in vivo; conditions: antibiotic i.v. 1 hr post infection
Procedure: as §1, §2

Staphylococcus aureus = experiment: standard microtiter assay, minimum inhibitory concentration; format: cell-based; conditions: for MIC: Table 5 organism 1 S. aureus
Method in brief: (§3)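 Standard microtiter broth assays, with MIC reported in μg/ml and averaged over several strains per species. The CWI-785 complex was tested, in some cases as HCl salts. Some runs used no serum, 50% human serum or 50% mouse serum.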

Streptococcus faecalis = experiment: as above; format: cell-based
Method in brief: as §3

S. epidermidis = experiment: mice infected i.p., antibiotic i.v. 1 hr post infection, ED50; format: in vivo; conditions: S. epidermidis 2479 (>1000 × LD50) i.p., antibiotic i.v. 1 hr post infection
Procedure: as §2

S. haemolyticus = experiment: as above; format: in vivo; conditions: S. haemolyticus 651 (8 × LD50) i.p., antibiotic i.v. 1 hr post infection
Procedure: as §2

[1] = system: Staphylococcus saprophyticus; experiment: standard microtiter assay, minimum inhibitory concentration; format: cell-based; conditions: for MIC: Table 5 organism 6 S. saprophyticus
Method in brief: (§4)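 Broth microtiter MIC (μg/ml) of CWI-785 antibiotic, as complex, individual components or HCl salts, against several staphylococcal strains. Some assays run without serum or in 50% human or 50% mouse serum.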

[2] = system: Staphylococcus haemolyticus; experiment: as above; format: cell-based; conditions: for MIC: Table 5 organism 3 S. haemolyticus
Method in brief: as §4

Group A Strep. = experiment: MIC against an expanded panel; format: cell-based; conditions: Table 4, Group A Strep. (6 strains)
Excerpt: (§5) The number of strains tested is shown in parentheses below each organism. The average MIC is reported in μg/ml.

JK Diptheroids = experiment: MIC against an expanded panel; format: cell-based; conditions: Table 4, JK Diptheroids (19 strains)
Excerpt: as §5

Group B Strep. = experiment: MIC against an expanded panel; format: cell-based; conditions: Table 4, Group B Strep. (4 strains)
Excerpt: as §5

Viridans = experiment: MIC against an expanded panel; format: cell-based; conditions: Table 4, Viridans (2 strains)
Excerpt: as §5

Coag-neg. Staphylococci = experiment: MIC against an expanded panel; format: cell-based; conditions: Table 4, Coag-neg. Staphylococci (24 strains)
Excerpt: as §5

[3] = Table 4, S. aureus (30 strains)
[4] = Table 4, Strep. faecalis (12 strains)

## teicoplanin
Streptococcus pyogenes
  minimum inhibitory concentration: 0.2 µg/mL
STAPH. AUREUS HH 127; Table 8, vs Staph. aureus HH 127 (I.V.)
  ED50: 0.405 mg/kg
STAPH. AUREUS HH 127; Table 8: 40 mg/kg (I.V.), 6 hr preinfection
  PERCENT SURVIVAL: 100%
S. faecalis; S. faecalis 34358 (9 × LD50) i.p., antibiotic i.v. 1 hr post infection
  ED50: 1.7 mg/kg
S. faecalis; mice infected with 3.17 LD50's of S. faecalis (strain 9, Table 2), dosed once subcutaneously one hour after infection
  ED50: 1.3 mg/kg
S. aureus; S. aureus 2620 (24 × LD50) i.p.
  ED50: 6.0 mg/kg
S. aureus; S. aureus HH 127 (35 × LD50) i.p.
  ED50: 2.5 mg/kg
Staphylococcus aureus; Table 1 test organism 1, S. aureus strain
  minimum inhibitory concentration: 1.6 µg/mL
Staphylococcus aureus; Table 1 test organism 2, S. aureus strain
  minimum inhibitory concentration: 1.6 µg/mL
Staphylococcus aureus; Table 1 test organism 3, S. aureus strain
  minimum inhibitory concentration: 3.1 µg/mL
Staphylococcus aureus; Table 1 test organism 4, S. aureus strain
  minimum inhibitory concentration: 1.6 µg/mL
Staphylococcus aureus; Table 1 test organism 5, S. aureus strain
  minimum inhibitory concentration: 1.6 µg/mL
Staphylococcus aureus; Table 1 test organism 6, S. aureus strain
  minimum inhibitory concentration: 1.6 µg/mL
Staphylococcus aureus; Table 1 test organism 7, S. aureus strain
  minimum inhibitory concentration: 3.1 µg/mL
Staphylococcus aureus; Table 1 test organism 8, S. aureus strain
  minimum inhibitory concentration: 6.3 µg/mL
Staphylococcus aureus; Table 1 test organism 9, S. aureus strain
  minimum inhibitory concentration: 6.3 µg/mL
Staphylococcus aureus; Table 1 test organism 10, S. aureus strain
  minimum inhibitory concentration: 6.3 µg/mL
Staphylococcus aureus; Table 1 test organism 11, S. aureus strain
  minimum inhibitory concentration: 3.1 µg/mL
Staphylococcus aureus; Table 1 test organism 12, S. aureus strain
  minimum inhibitory concentration: 3.1 µg/mL
Staphylococcus aureus; Table 1 test organism 13, S. aureus strain
  minimum inhibitory concentration: 0.8 µg/mL
Staphylococcus aureus; Table 2 test organism 1, S. aureus strain
  minimum inhibitory concentration: 3.1 µg/mL
Staphylococcus aureus; Table 2 test organism 2, S. aureus strain
  minimum inhibitory concentration: 0.8 µg/mL
Staphylococcus aureus; Table 2 test organism 3, S. aureus strain
  minimum inhibitory concentration: 0.4 µg/mL
Staphylococcus aureus; Table 2 test organism 4, S. aureus strain
  minimum inhibitory concentration: 3.1 µg/mL
Staphylococcus aureus; Table 2 test organism 5, S. aureus strain
  minimum inhibitory concentration: 1.6 µg/mL
Staphylococcus aureus; [3]
  MIC50: 3.1 µg/mL
  MIC RANGE: 1.6 to 6.3 µg/mL
Staphylococcus aureus; 50% Hum. Serum
  MIC: 6.3 µg/mL
Staphylococcus aureus; 50% Mse. Serum
  MIC: 25.0 µg/mL
Staphylococcus aureus; No Serum
  MIC: 3.1 µg/mL
Streptococcus faecalis; Table 2 test organism 9, Streptococcus faecalis strain
  minimum inhibitory concentration: < 0.1 µg/mL
Streptococcus faecalis; Table 2 test organism 10, Streptococcus faecalis strain
  minimum inhibitory concentration: < 0.1 µg/mL
Streptococcus faecalis; [4]
  MIC50: <= 0.1 μg/ml
  MIC RANGE: <=0.1-0.2 μg/ml
Streptococcus faecalis; Table 4, Strep. faecalis MBC50
  MBC50: 6.3 µg/mL
Streptococcus faecalis; Table 4, Strep. faecalis MBC50 column
  MBC RANGE: 1.6 to 25 µg/mL
Streptococcus faecalis; Table 5 organism 7 S. faecalis, 50% Hum. Serum
  MIC: 6.3 µg/mL
Streptococcus faecalis; Table 5 organism 7 S. faecalis, 50% Mse. Serum
  MIC: 1.6 µg/mL
Streptococcus faecalis; Table 5 organism 7 S. faecalis, No Serum
  MIC: <= 0.1 μg/ml
Streptococcus faecalis; Table 5 organism 8 S. faecalis, 50% Hum. Serum
  MIC: 6.3 µg/mL
Streptococcus faecalis; Table 5 organism 8 S. faecalis, 50% Mse. Serum
  MIC: 3.1 µg/mL
Streptococcus faecalis; Table 5 organism 8 S. faecalis, No Serum
  MIC: <= 0.1 μg/ml
S. epidermidis
  ED50: < 1.25 mg/kg
S. haemolyticus
  ED50: > 100 mg/kg
[1]; Table 2 test organism 13, Staphylococcus saprophyticus
  minimum inhibitory concentration: 1.6 µg/mL
[1]; 50% Hum. Serum
  MIC: 12.5 µg/mL
[1]; 50% Mse. Serum
  MIC: 1.6 µg/mL
[1]; No Serum
  MIC: 1.6 µg/mL
[2]; Table 2 test organism 7, Staphylococcus haemolyticus
  minimum inhibitory concentration: 12.5 µg/mL
[2]; 50% Hum. Serum
  MIC: 50.0 µg/mL
[2]; 50% Mse. Serum
  MIC: 50.0 µg/mL
[2]; No Serum
  MIC: 12.5 µg/mL
Group A Strep.
  MIC50: <= 0.025 μg/ml
  MIC RANGE: <0.025 to 0.4 µg/mL
JK Diptheroids
  MIC50: 1.6 µg/mL
  MIC RANGE: 0.2 to 3.1 µg/mL
Group B Strep.
  MIC RANGE: 0.1 to 1.6 µg/mL
Viridans
  MIC RANGE: 0.05 to 0.1 µg/mL
Coag-neg. Staphylococci
  MIC50: 12.5 µg/mL
  MIC RANGE: 0.8 to 25 µg/mL
